US10195197B2, “Combination therapy with glutaminase inhibitors” (Calithera Biosciences, Inc., priority 2016, dated 2019)

System: JIMT-1 tumors
Assay: JIMT-1 xenograft model, antitumor efficacy (in vivo TNBC model)
Conditions: single agent paclitaxel, five doses at 10 mg/kg every other day at start of study; initial regression followed by rapid regrowth; P=0.0002
Experimental: In the JIMT-1 xenograft model, the antitumor efficacy was evaluated by treating established tumors (125 mm^3 at the start of dosing) with CB-839 both as a single agent and in combination with paclitaxel, a standard-of-care chemotherapeutic agent for the treatment of TNBC. The regimen for paclitaxel (five doses at 10 mg/kg delivered every other day at the start of study) was chosen to provide suboptimal efficacy to ensure a window to evaluate the potential impact of combination treatment.

CC(=O)O[C@H]1C(=O)[C@@]2(C)[C@H]([C@H](OC(=O)c3ccccc3)[C@]3(O)C[C@H](OC(=O)[C@H](O)[C@@H](NC(=O)c4ccccc4)c4ccccc4)C(C)=C1C3(C)C)[C@]1(OC(C)=O)CO[C@@H]1C[C@@H]2O [paclitaxel] was tested, and the “TGI relative to vehicle control at the end of study” value was 73%.
